Test results published in PMC10628895, “Conformationally Selective 2-Aminotetralin Ligands Targeting the alpha2A- and alpha2C-Adrenergic Receptors” (ACS Chemical Neuroscience, 2023).

The molecules below were run against T1, human wild-type α2CR (Homo sapiens, UniProt P18825) (assay: Radioligand binding with [3H]rauwolscine (competition and saturation), membranes of transfected HEK293 cells). Conditions: not given.
T1 sequence (P18825 1-462): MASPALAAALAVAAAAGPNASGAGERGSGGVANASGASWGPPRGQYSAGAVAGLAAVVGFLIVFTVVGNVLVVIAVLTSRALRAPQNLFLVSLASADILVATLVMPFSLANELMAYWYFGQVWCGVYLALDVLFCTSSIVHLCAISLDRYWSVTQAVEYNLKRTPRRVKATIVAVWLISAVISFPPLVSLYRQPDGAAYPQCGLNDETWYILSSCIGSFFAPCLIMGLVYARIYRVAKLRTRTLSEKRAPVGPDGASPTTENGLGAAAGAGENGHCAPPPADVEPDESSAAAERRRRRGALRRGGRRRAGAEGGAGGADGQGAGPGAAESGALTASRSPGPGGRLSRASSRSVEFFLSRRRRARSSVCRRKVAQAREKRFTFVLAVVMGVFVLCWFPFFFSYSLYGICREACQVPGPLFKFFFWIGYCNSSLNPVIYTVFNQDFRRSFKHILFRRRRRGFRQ
Parameters: host or cells: mouse connective-tissue cells stably expressing the receptor
`CN(C)[C@H]1CCc2c(cccc2-c2ccccc2Cl)C1` [(S)-3] gave a Ki of 17 ± 4.1 nM. Molecule `CCCN(CCC)[C@H]1CCc2c(cccc2-c2ccccc2)C1` [(S)-5] has a Ki of 370 ± 14 nM. `CCCN(CCC)[C@H]1CCc2c(cccc2-c2ccccc2Cl)C1` [(S)-6] showed a Ki of 280 ± 20 nM. For `CN(C)[C@H]1CCc2c(cccc2-c2cccc3ccccc23)C1` [(S)-7], the Ki was 180 ± 38 nM. `CN(C)[C@H]1CCc2c(cccc2-c2ccco2)C1` [(S)-8] gave a Ki of 150 ± 3.5 nM. With `CN(C)[C@H]1CCc2c(cccc2-c2cccs2)C1` [(S)-9] the Ki was 48 ± 0.57 nM. `CN(C)[C@H]1CCc2c(cccc2-c2cccn2C)C1` [(S)-10] was tested, and the Ki was 50 ± 4.1 nM.

The molecules below were run against T2, human wild-type α2AR (Homo sapiens, UniProt P08913) (assay: cAMP accumulation, LANCE Ultra cAMP TR-FRET immunoassay, cells stably expressing α2AR). Conditions: not given.
T2 sequence (P08913 1-465): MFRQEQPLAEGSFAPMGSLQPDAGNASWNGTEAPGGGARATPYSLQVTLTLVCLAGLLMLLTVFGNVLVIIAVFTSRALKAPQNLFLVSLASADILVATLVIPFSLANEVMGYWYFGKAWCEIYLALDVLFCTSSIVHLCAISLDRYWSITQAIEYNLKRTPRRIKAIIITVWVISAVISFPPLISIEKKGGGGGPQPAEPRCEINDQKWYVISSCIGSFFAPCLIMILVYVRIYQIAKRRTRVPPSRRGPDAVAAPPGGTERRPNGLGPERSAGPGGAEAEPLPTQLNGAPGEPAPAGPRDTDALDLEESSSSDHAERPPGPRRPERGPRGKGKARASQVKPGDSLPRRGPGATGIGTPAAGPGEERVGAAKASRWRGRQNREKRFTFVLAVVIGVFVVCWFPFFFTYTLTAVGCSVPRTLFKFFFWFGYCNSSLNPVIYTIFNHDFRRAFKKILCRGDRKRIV
With `CN(C)[C@H]1CCc2c(cccc2-c2ccccc2Cl)C1` [(S)-3] the EC50 was 1.3 ± 0.18 nM. In the case of `Fc1ccccc1-c1cccc2c1CC[C@H](N1CCCC1)C2` [(S)-4, (S)-1-(5-(2-Fluorophenyl)-1,2,3,4-tetrahydronaphthalen-2-yl)pyrrolidine], the EC50 is reported as 1.1 ± 0.16 nM. Work on `CN(C)[C@H]1CCc2c(cccc2-c2cccc3ccccc23)C1` [(S)-7] yielded an EC50 of 82 ± 8.3 nM. For `CN(C)[C@H]1CCc2c(cccc2-c2cccn2C)C1` [(S)-10], the IC50 was 11 ± 0.26 nM.

Same assay, conditions: agonist potency
In the case of `CN(C)[C@H]1CCc2c(cccc2-c2cccc3ccccc23)C1` [(S)-7], the “fold less potent than FPT at the α2AR” value is reported as 150 fold.

Same assay, conditions: cAMP formation
For `CN(C)[C@H]1CCc2c(cccc2-c2cccc3ccccc23)C1` [(S)-7], the “functional activity at the α2AR (in words)” value was “agonist activity”. With `CN(C)[C@H]1CCc2c(cccc2-c2cccs2)C1` [(S)-9] the “functional activity at the α2AR (in words)” value was “no significant change over baseline”. For `CN(C)[C@H]1CCc2c(cccc2-c2cccn2C)C1` [(S)-10], the “functional activity at the α2AR (in words)” value was “inverse agonist”.

Same assay, conditions: read-out: Emax α2AR
`Fc1ccccc1-c1cccc2c1CC[C@H](N1CCCC1)C2` [(S)-4, (S)-1-(5-(2-Fluorophenyl)-1,2,3,4-tetrahydronaphthalen-2-yl)pyrrolidine] showed an Emax of 46 ± 3%.

Same assay, conditions: read-out: Emax α2AR, percent maximum response normalized to lofexidine; mean ± SD; NC = no significant change from forskolin-established baseline signaling
`CN(C)[C@H]1CCc2c(cccc2-c2ccccc2Cl)C1` [(S)-3] gave an Emax of 47 ± 2.9%. `CN(C)[C@H]1CCc2c(cccc2-c2cccc3ccccc23)C1` [(S)-7] showed an Emax of 14 ± 4.3%.

These molecules were tested against T2, human wild-type α2AR (assay: Radioligand binding with [3H]rauwolscine (competition and saturation), membranes of transfected HEK293 cells). Conditions: not given.
Parameters: host or cells: mouse connective-tissue cells stably expressing the receptor
`CN(C)[C@H]1CCc2c(cccc2-c2ccccc2Cl)C1` [(S)-3] showed a Ki of 5.1 ± 0.52 nM. `CCCN(CCC)[C@H]1CCc2c(cccc2-c2ccccc2)C1` [(S)-5] was tested, and the Ki was 180 ± 19 nM. Work on `CCCN(CCC)[C@H]1CCc2c(cccc2-c2ccccc2Cl)C1` [(S)-6] yielded a Ki of 67 ± 11 nM. Molecule `CN(C)[C@H]1CCc2c(cccc2-c2cccc3ccccc23)C1` [(S)-7] has a Ki of 27 ± 6.3 nM. `CN(C)[C@H]1CCc2c(cccc2-c2ccco2)C1` [(S)-8] gave a Ki of 59 ± 1.4 nM. `CN(C)[C@H]1CCc2c(cccc2-c2cccs2)C1` [(S)-9] was tested, and the Ki was 6.2 ± 1.5 nM and the “fold higher affinity compared to the FAT compound at α2AR” value was 5–10 fold. For `CN(C)[C@H]1CCc2c(cccc2-c2cccn2C)C1` [(S)-10], the Ki was 12 ± 0.41 nM and the “fold higher affinity compared to the FAT compound at α2AR” value was 5–10 fold.

Same assay, conditions: [3H]rauwolscine competition, HEK293 membranes, mean ± SD; read-out: Affinity (Ki ± SD; nM) α2AR
In the case of `Fc1ccccc1-c1cccc2c1CC[C@@H](N1CCCC1)C2` [(R)-4, (R)-1-(5-(2-Fluorophenyl)-1,2,3,4-tetrahydronaphthalen-2-yl)pyrrolidine], the Ki is reported as 1000 ± 170 nM. Work on `Fc1ccccc1-c1cccc2c1CC[C@H](N1CCCC1)C2` [(S)-4, (S)-1-(5-(2-Fluorophenyl)-1,2,3,4-tetrahydronaphthalen-2-yl)pyrrolidine] yielded a Ki of 5.7 ± 1.4 nM.

Each molecule was assayed against T1, human wild-type α2CR (assay: cAMP accumulation, LANCE Ultra cAMP TR-FRET immunoassay, cells stably expressing α2CR). Conditions: not given.
`CN(C)[C@H]1CCc2c(cccc2-c2ccccc2Cl)C1` [(S)-3] gave an IC50 of 130 ± 2.4 nM. Molecule `Fc1ccccc1-c1cccc2c1CC[C@H](N1CCCC1)C2` [(S)-4, (S)-1-(5-(2-Fluorophenyl)-1,2,3,4-tetrahydronaphthalen-2-yl)pyrrolidine] has an IC50 of 48 ± 1.8 nM. With `CN(C)[C@H]1CCc2c(cccc2-c2cccc3ccccc23)C1` [(S)-7] the IC50 was 260 ± 44 nM. For `CN(C)[C@H]1CCc2c(cccc2-c2cccn2C)C1` [(S)-10], the IC50 was 92 ± 5.9 nM. Molecule `CC(Oc1c(Cl)cccc1Cl)C1=NCCN1` (centres unmarked) [Lofexidine, reference compound] has an EC50 of 4.9 ± 1.2 nM.

Same assay, conditions: cAMP formation
In the case of `CN(C)[C@H]1CCc2c(cccc2-c2ccccc2Cl)C1` [(S)-3], the “functional activity at the α2CR (in words)” value is reported as “inverse agonists”. For `Fc1ccccc1-c1cccc2c1CC[C@H](N1CCCC1)C2` [(S)-4, (S)-1-(5-(2-Fluorophenyl)-1,2,3,4-tetrahydronaphthalen-2-yl)pyrrolidine], the “functional activity at the α2CR (in words)” value was “inverse agonists”. `CN(C)[C@H]1CCc2c(cccc2-c2cccc3ccccc23)C1` [(S)-7] was tested, and the “functional activity at the α2CR (in words)” value was “inverse agonism”. In the case of `CN(C)[C@H]1CCc2c(cccc2-c2cccs2)C1` [(S)-9], the “functional activity at the α2CR (in words)” value is reported as “neutral antagonist”. For `CC(Oc1c(Cl)cccc1Cl)C1=NCCN1` (centres unmarked) [Lofexidine, reference compound], the “functional activity at the α2CR (in words)” value was “agonist”.

Same assay, conditions: inverse agonist efficacy
`CN(C)[C@H]1CCc2c(cccc2-c2cccc3ccccc23)C1` [(S)-7] was tested, and the “fold less efficacious than the other 5-SATs at the α2CR” value was “roughly 2 fold”.

Same assay, conditions: inverse agonist potency
`Fc1ccccc1-c1cccc2c1CC[C@H](N1CCCC1)C2` [(S)-4, (S)-1-(5-(2-Fluorophenyl)-1,2,3,4-tetrahydronaphthalen-2-yl)pyrrolidine] was tested, and the “fold higher potency than 5-PAT at the α2CR” value was “about 9 fold”, the “fold higher potency than CPT at the α2CR” value was ~3 fold and the “fold higher potency than FPT at the α2CR” value was “about 2 fold”.

Same assay, conditions: read-out: Emax α2CR
For `CC(Oc1c(Cl)cccc1Cl)C1=NCCN1` (centres unmarked) [Lofexidine, reference compound], the Emax was 100 ± 3.4%.

Each molecule was assayed against T1, human wild-type α2CR (assay: Radioligand binding with [3H]rauwolscine (competition and saturation), membranes of transfected HEK293 cells). Conditions: [3H]rauwolscine competition, mean ± SD, read-out: Affinity (Ki ± SD; nM) α2CR.
Parameters: host or cells: mouse connective-tissue cells stably expressing the receptor
Procedure: Cells were grown in 10-cm plates and allowed to reach log growth phase (equivalent to about 70–90% confluency) before transfection. A transfection cocktail containing 3 mL of Opti-MEM (Gibco, Waltham, MA), 10 μg of cDNA, and 30 μL of linear polyethyleneimine “max” (molecular weight ∼ 40 000 g/mol, Polysciences Inc., Warrington, PA) was added to each plate and then incubated with an additional 3 mL of supplemented MEM for 48 h. Human wild-type α2-adrenergic GPCR clones, encoded in a pcDNA3.1(+) vector, were obtained from the cDNA Resource Center (Bloomsburg, PA). Cells were transiently transfected to express the α2AR or α2CR, and membranes were isolated for use in radioligand binding assays.
Cell membrane isolates were obtained following transfection procedure via a series of three 10-min, 12000g centrifugations homogenized via a tissue grinder. Saturation and competitive radioligand displacement assays conducted in 96-well assay plates were performed using membrane isolates. The bicinchoninic acid (BCA) protein assay (Thermo Scientific) kit was used to quantify protein expression.
Each concentration was assessed in quadruplicate, and each competitive binding assay was performed in at least three distinct replicates. Nonspecific binding was determined using 10 μM clozapine. Data were analyzed using the nonlinear regression function “One-site-Fit Ki” in Prism, wherein the Ki was calculated from the experimentally derived IC50 via the Cheng–Prusoff equation[58] [drawing 1]
For `Fc1ccccc1-c1cccc2c1CC[C@@H](N1CCCC1)C2` [(R)-4, (R)-1-(5-(2-Fluorophenyl)-1,2,3,4-tetrahydronaphthalen-2-yl)pyrrolidine], the Ki was 1500 ± 270 nM. `Fc1ccccc1-c1cccc2c1CC[C@H](N1CCCC1)C2` [(S)-4, (S)-1-(5-(2-Fluorophenyl)-1,2,3,4-tetrahydronaphthalen-2-yl)pyrrolidine] gave a Ki of 5.2 ± 0.3 nM. Molecule `CC(Oc1c(Cl)cccc1Cl)C1=NCCN1` (centres unmarked) [Lofexidine, reference compound] has a Ki of 22 ± 4.6 nM.
